The text below walks through data of publication PMC8199339, “Propellanes as Rigid Scaffolds for the Stereodefined Attachment of σ-Pharmacophoric Structural Elements to Achieve σ Affinity” (International Journal of Molecular Sciences, 2021).

Like-named read-outs stand apart in the source and are kept apart here. Bounds are passed on as bounds.

For one assay, the target named is T1, σ2 receptor (Rattus norvegicus, UniProt Q5U3Y7).
T1 construct: The thawed rat liver membrane preparation; tissue Harlan-Winkelmann, Borchen, Germany (animal organs); host or cells: rat liver membrane homogenate
T1 sequence (Q5U3Y7 1-176): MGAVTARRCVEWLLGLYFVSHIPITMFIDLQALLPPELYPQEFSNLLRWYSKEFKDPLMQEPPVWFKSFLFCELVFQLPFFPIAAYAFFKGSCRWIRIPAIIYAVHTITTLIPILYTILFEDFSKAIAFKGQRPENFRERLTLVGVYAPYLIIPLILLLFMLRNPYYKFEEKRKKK
Briefly: σ2 receptor binding assay, radioligand [3H]di-o-tolylguanidine, rat liver membrane preparation. The following applies: for Ki: read-out: Ki (nM) σ2; for inhibition at 1 µM: test compound concentration of 1 µM.

The target in the next assay is T2, σ1 receptor (Cavia porcellus, UniProt Q60492).
T2 construct: thawed membrane preparation of guinea pig brain; tissue Harlan-Winkelmann, Borchen, Germany (animal organs); host or cells: guinea pig brain membrane homogenate
T2 sequence (Q60492 whole entry): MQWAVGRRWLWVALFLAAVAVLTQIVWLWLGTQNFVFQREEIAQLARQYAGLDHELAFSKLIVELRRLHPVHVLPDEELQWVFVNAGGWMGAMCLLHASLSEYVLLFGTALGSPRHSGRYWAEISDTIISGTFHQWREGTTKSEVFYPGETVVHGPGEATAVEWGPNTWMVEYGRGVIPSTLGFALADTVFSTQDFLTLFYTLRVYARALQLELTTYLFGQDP
Nature of the assay: σ1 receptor binding assay, radioligand [3H]-(+)-pentazocine, guinea pig brain membrane preparation. The following applies: for inhibition at 1 µM: test compound concentration of 1 µM.

[1] abbreviates: [3H]-(+)-pentazocine, guinea pig brain, mean of three experiments (± SEM), values without SEM mean of two, read-out: Ki (nM) σ1.
Where [2] appears, read: approximate statement in text, read-out: σ1 affinity, Ki (in the range of).

As for `COc1ccc(C)cc1NC(=O)OC1CC23CCCCC2(CC(NCc2ccco2)C3)C1` (mixture of isomers) [8-anti-4i, [(8-anti-11-anti and 8-anti-11-syn)-11-[(Furan-2-yl-mehtyl)amino][4.3.3]propellan-8-yl] N-(2-methoxy-5-methylphenyl)carbamate], the Ki on σ2 receptor is greater than 6000 nM; on σ1 receptor (setting [1]), 924 nM; on σ1 receptor (setting [2]), roughly 1000 nM.

Consider `COc1ccc(C)cc1NC(=O)OC1CC23CCCCC2(CC(NCc2ccco2)C3)C1` (mixture of isomers) [8-syn-4i, [(8-syn-11-syn and 8-syn-11-anti)-11-[(Furan-2-yl-mehtyl)amino][4.3.3]propellan-8-yl] N-(2-methoxy-5-methylphenyl)carbamate], for which, on σ2 receptor, the inhibition at 1 µM was found to be 0%. For the same compound, the inhibitory constant (Ki) on σ1 receptor (setting [1]) stood at 276 nM.

`OC1CC23CCCCC2(C1)CC(NCc1ccccc1)C3` (mixture of isomers) [11-syn-13, [(8-syn-11-syn and 8-syn-11-anti)-11-(Benzylamino)[4.3.3]propellan-8-ol] had an inhibition at 1 µM at σ2 receptor of 27%. The inhibitory constant (Ki) on σ1 receptor (setting [1]) came to 619 nM.

As to `COc1ccc(C)cc1NC(=O)OC1CC23CCCCC2(CC(NCc2ccc(OC)c(OC)c2)C3)C1` (stereo not drawn) [8-anti-4b, [(8-anti-11-anti and 8-anti-11-syn)-11-(3,4-Dimethoxbenzylamino)[4.3.3]propellan-8-yl] N-(2-methoxy-5-methylphenyl)carbamate], the inhibition at 1 µM at σ2 receptor stood at 1%; at σ1 receptor, 6%.

On to `COc1ccc(C)cc1NC(=O)OC1CC23CCCCC2(CC(NCc2ccc(Cl)cc2)C3)C1` (stereo not drawn) [8-anti-4c, [(8-anti-11-anti and 8-anti-11-syn)-11-(4-Chlorobenzylamino)[4.3.3]propellan-8-yl] N-(2-methoxy-5-methylphenyl)carbamate], for which the inhibition at 1 µM at σ2 receptor was determined as 12%; at σ1 receptor, 6%.

For the compound `COc1ccc(C)cc1NC(=O)OC1CC23CCCCC2(CC(NCc2ccc(Cl)c(Cl)c2)C3)C1` (stereo not drawn) [8-anti-4d, [(8-anti-11-anti and 8-anti-11-syn)-11-(3,4-Dichlorobenzylamino)[4.3.3]propellan-8-yl] N-(2-methoxy-5-methylphenyl)carbamate], the inhibition at 1 µM on σ2 receptor turned out to be 4%; at σ1 receptor it was 0%.

Regarding `COc1ccc(C)cc1NC(=O)OC1CC23CCCCC2(CC(NCc2ccc(C)cc2C)C3)C1` (stereo not drawn) [8-anti-4e, [(8-anti-11-anti and 8-anti-11-syn)-11-(2,4-Dimethylbenzylamino)[4.3.3]propellan-8-yl] N-(2-methoxy-5-methylphenyl)carbamate], the Ki on σ2 receptor worked out at 1100 nM. At σ1 receptor, this compound yielded an inhibition at 1 µM of 0%.

As for `COc1ccc(C)cc1NC(=O)OC1CC23CCCCC2(CC(NCc2cc(C(F)(F)F)cc(C(F)(F)F)c2)C3)C1` (stereo not drawn) [8-anti-4f, [(8-anti-11-anti and 8-anti-11-syn)-11-[(3,5-Bis(trifluoromethyl)benzylamino]-[4.3.3]propellan-8-yl] N-(2-methoxy-5-methylphenyl)carbamate], the inhibition at 1 µM at σ2 receptor and on σ1 receptor was 0% in each case.

With `COc1ccc(C)cc1NC(=O)OC1CC23CCCCC2(CC(NCc2ccc([N+](=O)[O-])cc2)C3)C1` (stereo not drawn) [8-anti-4g, [(8-anti-11-anti and 8-anti-11-syn)-11-(4-Nitrobenzylamino)[4.3.3]propellan-8-yl] N-(2-methoxy-5-methylphenyl)carbamate], the inhibition constant Ki on σ2 receptor amounted to 1950 nM. Further, at σ1 receptor, testing at 1 µM gave an inhibition of 24%.

For the compound `COc1ccc(C)cc1NC(=O)OC1CC23CCCCC2(CC(NCc2ccc(N(C)C)cc2)C3)C1` (stereo not drawn) [8-anti-4h, [(8-anti-11-anti and 8-anti-11-syn)-11-[(4-Dimethylamino)benzylamino]-[4.3.3]propellan-8-yl] N-(2-methoxy-5-methylphenyl)carbamate], the inhibition at 1 µM on σ2 receptor and on σ1 receptor was 0% in each case.

For `COc1ccc(C)cc1NC(=O)OC1CC23CCCCC2(CC(NCCc2c[nH]c4ccccc24)C3)C1` (stereo not drawn) [8-anti-4k, [(8-anti-11-anti and 8-anti-11-syn)-11-[2-(Indol-3-yl)ethylamino][4.3.3]propellan-8-yl] N-(2-methoxy-5-methylphenyl)carbamate], the inhibition at 1 µM at σ2 receptor was 0%. In addition, the Ki on σ1 receptor (setting [1]) was 1200 nM; at σ1 receptor (setting [2]), roughly 1000 nM.

Turning to `COc1ccc(C)cc1NC(=O)OC1CC23CCCCC2(CC(Nc2ccccc2)C3)C1` (stereo not drawn) [8-anti-4l, [(8-anti-11-anti and 8-anti-11-syn)-11-(Phenylamino)[4.3.3]propellan-8-yl] N-(2-methoxy-5-methylphenyl)carbamate], the inhibition at 1 µM is 0% at σ2 receptor and 13% at σ1 receptor.

With `COc1ccc(NC2CC34CCCCC3(C2)CC(OC(=O)Nc2cc(C)ccc2OC)C4)cc1` (stereo not drawn) [8-anti-4m, [(8-anti-11-anti and 8-anti-11-syn)-11-(4-Methoxyphenylamino)[4.3.3]propellan-8-yl] N-(2-methoxy-5-methylphenyl)carbamate], the inhibition at 1 µM on σ2 receptor came to 0%; at σ1 receptor it was 11%.

Turning to `COc1ccc(NC2CC34CCCCC3(C2)CC(OC(=O)Nc2cc(C)ccc2OC)C4)cc1Cl` (stereo not drawn) [8-anti-4n, [(8-anti-11-anti and 8-anti-11-syn)-11-(3-Chloro-4-methoxyphenylamino)-[4.3.3]propellan-8-yl] N-(2-methoxy-5-methylphenyl)carbamate], the inhibition at 1 µM at σ2 receptor and at σ1 receptor was 0% in each case.

For the compound `COc1ccc(C)cc1NC(=O)OC1CC23CCCCC2(CC(Nc2ccc(N)cc2)C3)C1` (stereo not drawn) [8-anti-4o, [(8-anti-11-anti and 8-anti-11-syn)-11-(4-Aminophenylamino)[4.3.3]propellan-8-yl] N-(2-methoxy-5-methylphenyl)carbamate], the inhibition constant (Ki) on σ2 receptor is 12000 nM. Also, at 1 µM the inhibition at σ1 receptor was 16%.

For the compound `COc1ccc(C)cc1NC(=O)OC1CC23CCCCC2(CC(NCCc2ccccc2)C3)C1` (stereo not drawn) [8-anti-4p, [(8-anti-11-anti and 8-anti-11-syn)-11-(Phenethylamino)[4.3.3]propellan-8-yl] N-(2-methoxy-5-methylphenyl)carbamate], on σ2 receptor, at 1 µM the inhibition was 0%. Moreover, the Ki at σ1 receptor (setting [1]) is 668 nM.

For the compound `COc1ccc(C)cc1NC(=O)OC1CC23CCCCC2(CC(NCCCc2ccccc2)C3)C1` (stereo not drawn) [8-anti-4q, [(8-anti-11-anti and 8-anti-11-syn)-11-(3-Phenylpropylamino)[4.3.3]propellan-8-yl] N-(2-methoxy-5-methylphenyl)carbamate], the inhibition at 1 µM was 0% at σ2 receptor and 22% at σ1 receptor.

Regarding `COc1ccc(C)cc1NC(=O)OC1CC23CCCCC2(CC(NCCO)C3)C1` (stereo not drawn) [8-anti-4s, [(8-anti-11-anti and 8-anti-11-syn)-11-(2-Hydroxyethyl-1-amino)[4.3.3]propellan-8-yl] N-(2-methoxy-5-methylphenyl)carbamate], the inhibition at 1 µM at σ2 receptor stood at 0%; on σ1 receptor it was 12%.

In the case of `COc1ccc(C)cc1NC(=O)OC1CC23CCCCC2(CC(NCCCCCO)C3)C1` (stereo not drawn) [8-anti-4t, [(8-anti-11-anti and 8-anti-11-syn)-11-(5-Hydroxypentylamino)[4.3.3]propellan-8-yl] N-(2-methoxy-5-methylphenyl)carbamate], the inhibition at 1 µM on σ2 receptor came out at 2%. Further, the inhibition constant (Ki) at σ1 receptor (setting [1]) is 454 nM.

As usually defined, the Ki is the equilibrium dissociation constant of an inhibitor or competing ligand from its target. As a reminder, the inhibition is the relative decrease from the control value, in per cent. Lower therefore signals a response near the control.
